Assay results published in patent US9061060B2, “Deuterated benzylbenzene derivatives and methods of use” (Theracos Inc., priority 2008, dated 2015).

Experiments:
[1] = Pharmacokinetic parameters in SD rats; type: in vivo, Sprague-Dawley rats; conditions: single oral 3 mg/kg in 30% PEG400, plasma
Method: The pharmacokinetic study of each test compound was conducted in 4 Sprague-Dawley rats following a single oral administration of 3 mg/kg of the compound. The dose was prepared by dissolving test article in appropriate volume of 30% PEG400. The plasma samples were collected from the orbital plexus at 0.083, 0.25, 0.50, 1.0, 2.0, 4.0, 6.0, 8.0, 12 and 24 hours post dose, and the plasma concentrations were determined by a developed LC-MS/MS method.

human SGLT2 = target: T1, human SGLT2 (Homo sapiens, UniProt P31639); assay: Methyl-α-D-[U-14C]glucopyranoside uptake assay, cells stably expressing human SGLT2; type: cell-based; conditions: for IC50: HEK293.ETN cells expressing human SGLT2, 25% human serum, 1.5 hours; for Selectivity: SGLT1 IC50 divided by SGLT2 IC50
T1 construct: A full-length cDNA clone expressing human SGLT2 (GenScript Corporation)
T1 sequence (P31639 1-672): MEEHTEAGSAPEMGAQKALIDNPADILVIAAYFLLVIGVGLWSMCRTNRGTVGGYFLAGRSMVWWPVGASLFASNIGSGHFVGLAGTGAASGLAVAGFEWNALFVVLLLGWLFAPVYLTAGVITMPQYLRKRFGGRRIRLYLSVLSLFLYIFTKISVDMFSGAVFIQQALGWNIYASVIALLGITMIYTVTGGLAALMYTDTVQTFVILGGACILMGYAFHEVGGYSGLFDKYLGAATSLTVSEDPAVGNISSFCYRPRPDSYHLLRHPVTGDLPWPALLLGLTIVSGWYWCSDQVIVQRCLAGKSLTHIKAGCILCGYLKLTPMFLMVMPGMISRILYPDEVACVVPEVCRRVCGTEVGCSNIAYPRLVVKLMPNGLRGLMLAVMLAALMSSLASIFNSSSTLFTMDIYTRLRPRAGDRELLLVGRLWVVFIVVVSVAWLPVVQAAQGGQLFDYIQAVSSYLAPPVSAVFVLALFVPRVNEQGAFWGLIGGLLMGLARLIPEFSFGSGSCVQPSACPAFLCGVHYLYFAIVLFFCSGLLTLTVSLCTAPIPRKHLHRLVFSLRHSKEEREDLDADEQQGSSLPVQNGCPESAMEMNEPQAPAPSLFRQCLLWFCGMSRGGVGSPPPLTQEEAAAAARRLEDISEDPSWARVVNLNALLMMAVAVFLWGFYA
Description: A full-length cDNA clone expressing human SGLT2 (GenScript Corporation) was subcloned into Hind III and Not I sites of the pEAK15 expression vector. Clones harboring the cDNA inserts were identified by restriction analysis.
A plasmid containing human SGLT2 was linearized with Nsi I and purified by agarose gel electrophoresis. Using Lipofectamine 2000 Transfection Reagent (Invitrogen Corporation), DNA was transfected into HEK293.ETN cells and cultured in Dulbecco's Modified Eagle Medium (DMEM) containing 10% fetal bovine serum (FBS) at 37° C. under 5% CO2 for 24 hours. Transfectants were selected in the same growth medium supplemented with puromycin (Invitrogen Corporation) for two weeks. Puromycin-resistant cells were recovered and seeded on a fresh 96-well plate (single cell per well) and cultured in the presence of puromycin until cells became confluent.
Cells expressing SGLT1 or SGLT2 were seeded on 96-well ScintiPlate scintillating plates (PerkinElmer, Inc.) in DMEM containing 10% FBS (1×10^5 cells per well in […] medium) incubated at 37° C. under 5% CO2 for 48 hours prior to the assay.

Row | CL/F ([1]; Sprague-Dawley, rat) [mL/min/kg] | AUC(0-t) ([1]; Sprague-Dawley, rat, read-out: AUC0-t (mean ± SD)) [ng·h/mL] | Cmax (mean ± SD) [1] [ng/mL] | t1/2 (mean ± SD) [1] [h] | tmax (mean ± SD) [1] [h] | IC50 (human SGLT2) [nM] | Selectivity (human SGLT2) | Structure (SMILES)
1 | 9.47 | 5240 ± 715 | 1638 ± 326 | 3.55 ± 1.80 | 0.56 ± 0.31 | 1.9 | 284 | COc1ccc(Cc2cc([C@@H]3O[C@H](CO)[C@@H](O)[C@H](O)[C@H]3O)ccc2Cl)cc1 [Ref B, (2S,3R,4R,5S,6R)-2-(4-chloro-3-(4-methoxybenzyl)phenyl)-6-(hydroxymethyl)tetrahydro-2H-pyran-3,4,5-triol, reference compound]
2 | – | – | – | – | – | 0.8 | 1025 | [2H]C([2H])([2H])Oc1ccc(C([2H])([2H])c2cc([C@@H]3O[C@H](CO)[C@@H](O)[C@H](O)[C@H]3O)ccc2Cl)cc1 [compound 19, (2S,3R,4R,5S,6R)-2-(4-chloro-3-((4-(methoxy-d3)phenyl)methyl-d2)phenyl)-6-(hydroxymethyl)tetrahydro-2H-pyran-3,4,5-triol]
